{
  "source": "patent US20230277490A1",
  "about": "“GLUTAMINE AS AN ANTICANCER THERAPY IN SOLID TUMORS” (CEDARS-SINAI MEDICAL CENTER, priority 2020, published 2023)",
  "key": {"PDAC cells [1]": {"test_system": "PDAC cells", "experiment": "Glutamine supplementation with increasing concentrations of gemcitabine in PDAC cells", "type": "cell-based", "description": "The ability of L-Gln supplementation to […] intracellular nucleotide stores makes it an attractive agent to pair with gemcitabine, a standard chemotherapy used in the treatment of PDAC patients whose activity is also based on its ability to inhibit DNA synthesis.\nWe show herein that glutamine deprivation through glutaminase inhibition increases cancer cell survival and potentiates resistance to gemcitabine in PDAC cells."}, "Mia PaCa-2 cells [2]": {"test_system": "Mia PaCa-2 cells", "experiment": "Antitumor efficacy of L-Gln supplementation and CB-839 in vitro (FIG. 7)", "type": "cell-based", "settings": "for antitumor efficacy: single agent, Mia PaCa-2 cells in vitro"}, "pancreatic cancer cells [3]": {"test_system": "pancreatic cancer cells", "experiment": "Metabolomic mass spectrometric analysis of metabolite levels", "type": "cell-based, human", "experimental": "We tested how elevated glutamine affects gemcitabine efficacy. […] We next tested the metabolic impact of super-physiologic glutamine concentration (40 mM) on the gemcitabine response (0.5 μM) of pancreatic cancer cells through standard metabolomic mass spectrometric analysis. The heat map in FIG. 3 illustrates the differential metabolite accumulation with glutamine and gemcitabine treatment, as single agent and in combination. There were a number of metabolic changes that were only observed with the combination treatment. […] Importantly, high glutamine administration would reduce the concentration of gemcitabine required to cause significant cancer cell death."}, "PDAC cells [4]": {"test_system": "PDAC cells", "type": "cell-based", "description": "As L-Gln supplementation enhances the efficacy of chemotherapy, we tested whether L-Gln can lower the effective dose of gemcitabine."}, "Mia PaCa-2 cells [5]": {"test_system": "Mia PaCa-2 cells", "experiment": "Intracellular sodium by sodium green fluorescence intensity", "type": "cell-based", "settings": "MIA PaCa-2 cells in vitro; L-Gln 40 mM, D-Gln high dose"}, "[6]": {"test_system": "Pancreatic cancer cells (MIAPaCa human cell line)", "experiment": "Relative cell number / gemcitabine dose response with glutamine", "type": "cell-based", "settings": "for pIC50: Homo sapiens, MIAPaCa cells"}, "pancreatic cancer cells [7]": {"test_system": "pancreatic cancer cells", "experiment": "Basal metabolic rate and mitochondrial proton leakage of pancreatic cancer cells", "type": "cell-based, human"}, "PDAC cells [8]": {"test_system": "PDAC cells", "experiment": "PDAC cell growth / cell death in vitro", "type": "cell-based", "settings": "D-Gln high dose"}, "[9]": {"settings": "enteral glutamine, 47 prospective trials, over 1600 adult patients; cited from earlier work"}, "pancreatic cancer cells [10]": {"test_system": "pancreatic cancer cells", "experiment": "DNA damage accumulation", "type": "cell-based, human", "settings": "combination of glutamine and gemcitabine over either single agent"}, "[11]": {"settings": "at 23° C.; cited from earlier work"}, "melanoma tumor": {"test_system": "melanoma tumor", "settings": "dietary supplementation; cited from earlier work"}, "PDAC mouse models": {"test_system": "PDAC mouse models", "settings": "in vivo; cited from earlier work"}, "[12]": {"settings": "combination 40 mM glutamine and 0.5 μM gemcitabine"}},
  "note": "pIC50: −log10 of the molar value.",
  "data": [
    {"compound": "NC(=O)CC[C@H](N)C(=O)O", "note": "[L-Gln, L-glutamine]", "values": [
      {"measurement": "antitumor effects of gemcitabine", "setting": "PDAC cells [1]; L-Gln 40 mM compared to 2 mM, several PDAC cell lines", "value": "consistently enhanced the antitumor effects of gemcitabine"},
      {"measurement": "antitumor efficacy over time", "setting": "Mia PaCa-2 cells [2]; 40 mM L-Gln compared to control 2 mM L-Gln", "value": "consistently better with antitumor efficacy"},
      {"measurement": "antitumor activity under glutaminase inhibition", "setting": "Mia PaCa-2 cells [2]; L-Gln together with CB-839", "value": "occurred independently of glutaminase inhibition with CB-839"},
      {"measurement": "antitumor efficacy", "setting": "Mia PaCa-2 cells [2]", "value": "greater antitumor activity"},
      {"measurement": "TCA cycle metabolite levels", "setting": "pancreatic cancer cells [3]; 40 mM L-Gln", "value": "did not affect the majority of TCA cycle metabolites"},
      {"measurement": "intracellular essential and conditionally amino acids", "setting": "pancreatic cancer cells [3]; 40 mM compared to 2 mM L-Gln, PDAC cells in vitro", "value": "significantly depleted"},
      {"measurement": "intracellular nucleotide stores", "setting": "pancreatic cancer cells [3]; 40 mM compared to control 2 mM L-Gln", "value": "significantly depleted"},
      {"measurement": "colony formation with 5-FU", "setting": "PDAC cells [4]", "value": "as effective or even more effective than 5-FU at 0.1 uM"},
      {"measurement": "colony formation with gemcitabine", "setting": "PDAC cells [4]; 20 mM L-Gln plus gemcitabine", "value": "can enhance the efficacy gemcitabine"},
      {"measurement": "colony formation with paclitaxel", "setting": "PDAC cells [4]; high-dose L-Gln plus paclitaxel", "value": "enhances the efficacy of paclitaxel"},
      {"measurement": "intracellular sodium", "setting": "Mia PaCa-2 cells [5]", "value": "increases intracellular sodium levels"}
    ]},
    {"compound": "Nc1ccn([C@@H]2O[C@H](CO)[C@@H](O)C2(F)F)c(=O)n1", "note": "[gemcitabine]", "values": [
      {"measurement": "pIC50", "setting": "[6]; MIA PaCa-2, in the presence of 2 mM glutamine (physiologic concentration)", "value": 6.18},
      {"measurement": "pIC50", "setting": "[6]; MIA PaCa-2, with 40 mM glutamine (super-physiologic concentration)", "value": 6.75},
      {"measurement": "basal metabolic rate", "setting": "pancreatic cancer cells [7]; gemcitabine alone", "value": "elevated"},
      {"measurement": "mitochondrial proton leakage", "setting": "pancreatic cancer cells [7]; gemcitabine alone", "value": "induced"}
    ]},
    {"compound": "C[C@@H]1O[C@@H](O[C@H]2C[C@@H](O)[C@]3(CO)[C@H]4[C@H](O)C[C@]5(C)[C@@H](C6=CC(=O)OC6)CC[C@]5(O)[C@@H]4CC[C@]3(O)C2)[C@H](O)[C@H](O)[C@H]1O", "note": "[Ouabain]", "values": [
      {"measurement": "PDAC cell growth / cell death", "setting": "PDAC cells [8]", "value": "greater PDAC cell death"},
      {"measurement": "intracellular sodium", "setting": "Mia PaCa-2 cells [5]", "value": "leads to build up of intracellular sodium"}
    ]},
    {"compound": "NC(=O)CC[C@H](N)C(=O)O", "note": "[glutamine]", "values": [
      {"measurement": "cell death", "setting": "[6]; combination of elevated concentrations of glutamine and gemcitabine compared to either alone", "value": "dramatic increase in cell death"},
      {"measurement": "mitochondrial proton leakage induced by gemcitabine", "setting": "pancreatic cancer cells [7]; additional glutamine treatment", "value": "reduced"},
      {"measurement": "basal metabolic rate", "setting": "pancreatic cancer cells [7]; combination of 40 mM glutamine and 0.5 μM gemcitabine", "value": "further elevated still"},
      {"measurement": "tolerability", "setting": "[9]", "value": "well-tolerated"},
      {"measurement": "DNA damage", "setting": "pancreatic cancer cells [10]", "value": "greater DNA damage accumulation"},
      {"measurement": "solubility", "setting": "[11]", "value": 3.6, "unit": "%"},
      {"measurement": "PDAC cell death with increasing concentrations of gemcitabine", "setting": "PDAC cells [1]; glutamine supplementation", "value": "enhancement of PDAC cell death"},
      {"measurement": "cancer cell viability with increasing concentrations of gemcitabine", "setting": "PDAC cells [1]; glutamine supplementation in the face of glutaminase inhibition", "value": "decreased cancer cell viability"},
      {"measurement": "sensitivity to gemcitabine", "setting": "PDAC cells [1]; glutamine supplementation, even in the face of glutaminase inhibition", "value": "enhances sensitivity to gemcitabine"},
      {"measurement": "melanoma tumor growth", "setting": "melanoma tumor", "value": "can inhibit melanoma tumor growth"},
      {"measurement": "free nucleotides", "setting": "pancreatic cancer cells [3]; [12]", "value": "accumulation of free nucleotides"},
      {"measurement": "vitamin C and SAM levels", "setting": "pancreatic cancer cells [3]; [12]", "value": "accumulation of vitamin C and S-adenosine methionine (SAM)"}
    ]},
    {"compound": "O=C(Cc1cccc(OC(F)(F)F)c1)Nc1ccc(CCCCc2nnc(NC(=O)Cc3ccccn3)s2)nn1", "note": "[CB-839]", "values": [
      {"measurement": "antitumor efficacy", "setting": "Mia PaCa-2 cells [2]", "value": "some antitumor efficacy"},
      {"measurement": "efficacy in PDAC mouse models", "setting": "PDAC mouse models", "value": "failed"}
    ]}
  ]
}
